Data published in paper PMC12430443, “Discovery of Novel Benzamide-Based Sigma-1 Receptor Agonists with Enhanced Selectivity and Safety” (Molecules, 2025).

How the values were obtained:
[1] = Cytotoxicity, MTT/MTS assay; type: cell-based, human; settings: human, SH-SY5Y neuroblastoma cells; percentage of cell death after 24 h treatment at 100 µM (duplicate); read-out: SY5Y % Cytotox
Procedure: (§1) To assess potential cytotoxicity in CNS-relevant cells, human neuroblastoma (SH-SY5Y) cells were exposed to compounds 2–7 at concentrations up to 100 μM. Cell viability was measured using the MTT assay.
(§2) Cytotoxicity was assessed in human SH-SY5Y neuroblastoma cells cultured in Dulbecco’s Modified Eagle Medium (DMEM, Gibco, Thermo Fisher Scientific Inc., Waltham, MA, USA) supplemented with 2 mM L-glutamine, 100 μg/mL streptomycin, 100 IU/mL penicillin, 1 mM non-essential amino acids (all from Invitrogen, Thermo Fisher Scientific Inc., Waltham, MA, USA), and 10% (v/v) heat-inactivated fetal bovine serum (Sigma-Aldrich, Burlington, MA, USA). Cells were maintained at 37 °C in a humidified 5% CO2 atmosphere and serum-starved for 24 h to synchronize cultures before treatment with the test compounds at final concentrations of 100, 50, 10, 5, 1, 0.5, 0.1, or 0.05 μM (all in <0.1% DMSO). […] Absorbance was measured at 490 nm, and the results were expressed as a percentage relative to untreated control cells (set at 100%).

[2] = tested on: SH-SY5Y neuroblastoma cells; experiment: Cytotoxicity, MTT/MTS assay; type: cell-based, human; settings: selectivity index; IC50 was considered > 100 µM
Procedure: as §1, §2

adrenergic α1a receptor = adrenergic α1a receptor (Homo sapiens, UniProt P35348); experiment: Off-target panel, aequorin functional assay; type: cell-based; settings: 10 µM, duplicate; % inhibition of reference agonist activity
Procedure: (§3) Among the synthesized compounds, four derivatives were selected based on their affinity and selectivity profiles. […] The remaining compounds (2, 3, 6, and 7) were assessed for their agonist and antagonist activities across a panel of 58 receptors relevant to CNS disorders, including serotonin, adenosine, adrenergic, cannabinoid, dopamine, histamine, and muscarinic receptors. These assays were conducted at a concentration of 10 µM, in duplicate, utilizing aequorin [19], cAMP HTRF™ [20], and GTPγS binding assays, as detailed in Table 2. […] Specifically, compound 6 antagonized four receptors (5-HT2A, 5-HT2C, α1a, H1), while compound 7 was active against five receptors (5-HT2A, 5-HT3, α1a, H1, M1).
(§4) Rapidly, the tests were performed by Euroscreen (https://euroscreenfast.com/) with recombinant human G-coupled receptor-expressing cell lines using aequorin functional assays for serotonin 5-HT2A, 5-HT2B, 5-HT2C, 5-HT3, and 5-HT5A, adrenergic α1a and α1b, angiotensin AT1, cholesistokinin CCFK1, endothelin ETA, histamine H1, muscarinic M1 and M3, neurokinin NK1 and NK2, vasopressin V1a, and vasoactive intestinal peptide VPAC1 receptor analysis. Then, cAMP HTRF^TM assays were used to analyze serotonin 5-HT1A, 5-HT4E, 5-HT6, and 5-HT7, adenosine A1, A2A, and A3, adrenergic β1 and β2, cannabinoid CB1, dopamine D1, histamine H2, and neuropeptide Y NPY receptors. GTPγS^35 assays were used to analyze serotonin 5-HT1B, adrenergic α2a and α2b, dopamine D2, muscarinic M2 and M4, opioid δ, κ and µ, and somatostatine SST4 receptors.
(§5) Agonist and antagonist activities of the test compound are expressed as the percentage of the activity of the reference agonist at its EC100 concentration or the percentage of inhibition of the reference agonist activity at its EC80 concentration, respectively.
(§6) For the aequorin assays, different cell lines co-expressing the receptors were grown in specific culture media and incubated for 4 h with coelenterazine h. For agonist testing, cell suspensions were mixed with test or reference agonists in a 96-well plate. For antagonist testing, the reference agonist at its EC80 (final concentration) was injected to the mix the containing cells and the tested compound. The resulting emission of light was recorded using the Hamamatsu Functional Drug Screening System 6000 [19].

adrenergic α1b receptor = adrenergic α1b receptor (Homo sapiens, UniProt P35368); experiment: Off-target panel, aequorin functional assay; type: cell-based; settings: 10 µM, duplicate; % inhibition of reference agonist activity
Procedure: as §3, §4, §5, §6

serotonin 5-HT3 receptor = serotonin 5-HT3 receptor (Homo sapiens, UniProt P46098); experiment: Off-target panel, aequorin functional assay; type: cell-based; settings: 10 µM, duplicate; % inhibition of reference agonist activity
Procedure: as §3, §4, §5, §6

adrenergic α2a receptor = adrenergic α2a receptor (Homo sapiens, UniProt P08913); experiment: Off-target panel, GTPγS binding assay; type: biochemical; settings: 10 µM, duplicate; % inhibition of reference agonist activity
Procedure: as §3, with “M1). […]” for “M1).”
as §5
(§7) For the GTPγS scintillation proximity assay, optimized specific conditions were determined for each receptor. […] were estimated with a PerkinElmer TopCount reader.

adrenergic α2b receptor = adrenergic α2b receptor (Homo sapiens, UniProt P18089); experiment: Off-target panel, GTPγS binding assay; type: biochemical; settings: 10 µM, duplicate; % inhibition of reference agonist activity
Procedure: as §3, with “M1). […]” for “M1).”
as §5, §7

D4.4 = D4.4 (Homo sapiens, UniProt P21917); experiment: Off-target panel of recombinant human receptors; type: cell-based; settings: 10 µM, duplicate; % inhibition of reference agonist activity
Procedure: as §3, §5

histamine H1 receptor = histamine H1 receptor (Homo sapiens, UniProt P35367); experiment: Off-target panel, aequorin functional assay; type: cell-based; settings: 10 µM
Procedure: as §3, §4, §5, §6

adrenergic α2a receptor, sequence (P08913 whole entry): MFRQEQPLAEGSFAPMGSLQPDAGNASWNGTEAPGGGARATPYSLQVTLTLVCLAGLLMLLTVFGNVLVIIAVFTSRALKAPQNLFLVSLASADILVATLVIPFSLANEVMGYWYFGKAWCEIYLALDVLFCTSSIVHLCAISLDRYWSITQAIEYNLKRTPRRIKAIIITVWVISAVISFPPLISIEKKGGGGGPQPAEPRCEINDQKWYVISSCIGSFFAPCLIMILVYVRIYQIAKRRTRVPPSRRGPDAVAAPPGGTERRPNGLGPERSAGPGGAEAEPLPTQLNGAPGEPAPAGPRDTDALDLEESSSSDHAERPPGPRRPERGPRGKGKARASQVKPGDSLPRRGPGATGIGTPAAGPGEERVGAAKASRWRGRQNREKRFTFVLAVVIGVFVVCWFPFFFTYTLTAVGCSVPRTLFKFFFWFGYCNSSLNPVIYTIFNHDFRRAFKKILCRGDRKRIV
adrenergic α1a receptor, sequence (P35348 whole entry): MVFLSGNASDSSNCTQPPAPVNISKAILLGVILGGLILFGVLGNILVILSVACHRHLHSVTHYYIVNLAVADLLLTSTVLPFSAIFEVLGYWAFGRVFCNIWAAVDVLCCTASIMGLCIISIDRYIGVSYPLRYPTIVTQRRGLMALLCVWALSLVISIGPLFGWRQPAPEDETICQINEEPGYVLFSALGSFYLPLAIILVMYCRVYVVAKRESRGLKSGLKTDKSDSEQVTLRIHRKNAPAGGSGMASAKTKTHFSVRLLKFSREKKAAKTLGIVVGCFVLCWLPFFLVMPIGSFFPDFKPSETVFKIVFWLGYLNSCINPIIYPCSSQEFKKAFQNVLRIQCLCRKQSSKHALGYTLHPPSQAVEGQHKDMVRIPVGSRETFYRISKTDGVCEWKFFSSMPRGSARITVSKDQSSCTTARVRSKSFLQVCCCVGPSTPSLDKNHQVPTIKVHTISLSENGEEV
histamine H1 receptor, sequence (P35367 whole entry): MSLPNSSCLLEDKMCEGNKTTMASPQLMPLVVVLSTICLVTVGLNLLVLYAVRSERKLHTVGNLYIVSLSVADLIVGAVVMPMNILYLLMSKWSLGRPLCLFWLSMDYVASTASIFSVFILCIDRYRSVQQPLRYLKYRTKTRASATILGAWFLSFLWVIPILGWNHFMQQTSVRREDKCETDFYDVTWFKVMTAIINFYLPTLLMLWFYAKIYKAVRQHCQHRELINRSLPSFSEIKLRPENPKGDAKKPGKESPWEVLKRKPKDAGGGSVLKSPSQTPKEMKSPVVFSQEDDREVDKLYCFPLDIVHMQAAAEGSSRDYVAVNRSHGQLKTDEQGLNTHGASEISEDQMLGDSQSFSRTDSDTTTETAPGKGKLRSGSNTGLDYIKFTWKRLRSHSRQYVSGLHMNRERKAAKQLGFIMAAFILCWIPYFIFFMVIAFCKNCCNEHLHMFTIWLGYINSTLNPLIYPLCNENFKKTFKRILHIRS
adrenergic α1b receptor, sequence (P35368 whole entry): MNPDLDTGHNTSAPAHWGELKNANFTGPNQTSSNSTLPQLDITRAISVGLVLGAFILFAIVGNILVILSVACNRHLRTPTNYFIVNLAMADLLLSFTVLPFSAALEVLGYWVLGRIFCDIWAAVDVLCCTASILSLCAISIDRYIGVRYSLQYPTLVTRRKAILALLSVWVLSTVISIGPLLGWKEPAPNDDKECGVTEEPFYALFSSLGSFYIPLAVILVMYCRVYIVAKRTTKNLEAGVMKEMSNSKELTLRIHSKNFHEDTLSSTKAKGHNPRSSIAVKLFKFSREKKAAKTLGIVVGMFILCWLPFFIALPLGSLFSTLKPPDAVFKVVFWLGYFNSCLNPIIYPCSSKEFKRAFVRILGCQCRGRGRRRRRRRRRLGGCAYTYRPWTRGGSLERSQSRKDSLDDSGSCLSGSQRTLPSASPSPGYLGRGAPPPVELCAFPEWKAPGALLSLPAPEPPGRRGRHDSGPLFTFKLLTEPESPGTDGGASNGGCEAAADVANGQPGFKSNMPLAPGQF
serotonin 5-HT3 receptor, sequence (P46098 24-478): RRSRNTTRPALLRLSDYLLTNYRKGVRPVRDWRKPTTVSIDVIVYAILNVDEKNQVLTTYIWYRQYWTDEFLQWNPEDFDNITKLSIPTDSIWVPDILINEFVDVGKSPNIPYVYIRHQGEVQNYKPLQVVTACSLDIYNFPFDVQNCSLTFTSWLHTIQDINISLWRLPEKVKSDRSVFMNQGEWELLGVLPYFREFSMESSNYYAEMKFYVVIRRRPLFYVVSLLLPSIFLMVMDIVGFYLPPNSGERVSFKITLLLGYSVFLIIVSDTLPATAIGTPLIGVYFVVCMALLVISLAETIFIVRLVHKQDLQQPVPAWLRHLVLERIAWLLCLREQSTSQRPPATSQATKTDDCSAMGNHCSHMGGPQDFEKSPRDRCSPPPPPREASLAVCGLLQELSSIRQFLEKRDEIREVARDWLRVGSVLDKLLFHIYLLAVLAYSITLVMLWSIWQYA
adrenergic α2b receptor, sequence (P18089 whole entry): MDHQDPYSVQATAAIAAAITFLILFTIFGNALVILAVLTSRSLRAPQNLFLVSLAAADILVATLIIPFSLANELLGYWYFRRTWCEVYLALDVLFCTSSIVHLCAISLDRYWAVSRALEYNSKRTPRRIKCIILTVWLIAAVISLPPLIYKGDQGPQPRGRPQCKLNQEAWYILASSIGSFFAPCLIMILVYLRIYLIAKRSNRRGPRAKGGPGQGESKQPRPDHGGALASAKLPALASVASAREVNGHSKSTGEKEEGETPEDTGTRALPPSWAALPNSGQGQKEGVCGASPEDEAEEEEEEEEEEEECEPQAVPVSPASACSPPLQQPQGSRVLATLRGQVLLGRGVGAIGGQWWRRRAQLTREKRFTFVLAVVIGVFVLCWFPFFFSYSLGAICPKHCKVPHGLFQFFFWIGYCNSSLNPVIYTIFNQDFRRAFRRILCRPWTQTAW
D4.4, sequence (P21917 whole entry): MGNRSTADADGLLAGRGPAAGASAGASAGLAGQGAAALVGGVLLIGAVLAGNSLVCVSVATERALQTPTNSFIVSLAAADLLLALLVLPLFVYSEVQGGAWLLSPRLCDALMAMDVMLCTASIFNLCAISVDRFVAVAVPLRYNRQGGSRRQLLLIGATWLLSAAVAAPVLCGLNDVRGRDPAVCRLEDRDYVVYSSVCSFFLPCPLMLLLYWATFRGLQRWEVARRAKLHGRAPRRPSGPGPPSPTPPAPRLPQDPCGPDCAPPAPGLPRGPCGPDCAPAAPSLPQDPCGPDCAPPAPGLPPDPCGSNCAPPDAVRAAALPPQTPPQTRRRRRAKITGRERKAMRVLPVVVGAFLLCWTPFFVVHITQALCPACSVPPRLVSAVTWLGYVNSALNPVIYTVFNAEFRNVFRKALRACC

Q: Which results are given for CN(CCC(=O)NCc1cccc(Cl)c1)Cc1ccccc1 [Compound 2, 3-(Benzylmethylamino)-N-(3-chlorobenzyl)propanamide]?
A: cytotoxicity at 24 h, 100 µM [1]: 12%; IC50 (SY5Y)/ Ki (S1R) [2]: >166,666; α1a [b] antagonist activity (adrenergic α1a receptor): 64%; α1b [b] antagonist activity (adrenergic α1b receptor): 70%; 5-HT3 [b] antagonist activity (serotonin 5-HT3 receptor): 68%; α2a [b] antagonist activity (adrenergic α2a receptor): 61%; α2b [b] antagonist activity (adrenergic α2b receptor): 59%; D4.4 [b] antagonist activity (D4.4): 64%

Q: For CN(CCC(=O)NCc1ccc(C#N)cc1)Cc1ccccc1 [Compound 6, 3-(Benzylmethylamino)-N-(4-cyanobenzyl)propanamide], which cytotoxicity at 24 h, 100 µM [1] is on record?
A: The cytotoxicity at 24 h, 100 µM was 8%.

Q: What about the “IC50 (SY5Y)/ Ki (S1R)” value [2] of the same compound?
A: Its value is >17,857.

Q: And the “H1 antagonist activity (in words)” value (histamine H1 receptor)?
A: The value was “antagonized”.
